# Earlier results, collected in PubChem BioAssay AID1259409 (Chemical Carcinogenesis Research Information System (CCRIS), 2018).
# System: rodent chemically induced tumor inhibition, incidence and multiplicity
# Test: CCRIS tumor inhibitor studies
# Settings: Dose [Inhibitor]: 0; for outcome: Carcinogen: N-methyl-N-nitrosourea (684-93-5), study duration 4 wks, Route [Inhibitor]: Oral, Species: Rat, Strain/Sex: F344/DuCrj/Male, Dose [Carcinogen]: 2 mg/rat, 3 x a wk for 4 wks
smiles,measurement,setting,value
CC1=C(/C=C/C(C)=C/C=C/C(C)=C/C=C/C=C(C)/C=C/C=C(C)/C=C/C2=C(C)C(=O)[C@@H](O)CC2(C)C)C(C)(C)C[C@H](O)C1=O,"tumour outcome (control, treated, inhibition, significance)","Carcinogen: 4-NITROQUINOLINE-1-OXIDE, 56-57-5, 100 PPM IN DIET FOR 10 WK BEGINNING PRIOR TO CARCINOGEN TREATMENT (STUDY DURATION: 32 WK), Route [Inhibitor]: ORAL, Species: RAT, Strain/Sex: F344/MALE, Target Tissue: Type of Lesion: TONGUE: PAPILLOMA, Dose [Carcinogen]: 20 PPM IN DRINKING WATER FOR 8 WK, Promoter: NONE USED","4/24 (17%), 0/18 (0%), 100%, p<0.05"
same,"tumour outcome (control, treated, inhibition, significance)","Carcinogen: 4-NITROQUINOLINE-1-OXIDE, 56-57-5, 100 PPM IN DIET FOR 10 WK BEGINNING PRIOR TO CARCINOGEN TREATMENT (STUDY DURATION: 32 WK), Route [Inhibitor]: ORAL, Species: RAT, Strain/Sex: F344/MALE, Target Tissue: Type of Lesion: TONGUE: SQUAMOUS CELL CARCINOMA, Dose [Carcinogen]: 20 PPM IN DRINKING WATER FOR 8 WK, Promoter: NONE USED","13/24 (54%), 0/18 (0%), 100%, p<0.05"
same,"tumour outcome (control, treated, inhibition, significance)","Carcinogen: 4-NITROQUINOLINE-1-OXIDE, 56-57-5, 100 PPM IN DIET FOR 22 WK BEGINNING 1 WK POST CARCINOGEN TREATMENT (STUDY DURATION: 32 WK), Route [Inhibitor]: ORAL, Species: RAT, Strain/Sex: F344/MALE, Target Tissue: Type of Lesion: TONGUE: PAPILLOMA, Dose [Carcinogen]: 20 PPM IN DRINKING WATER FOR 8 WK, Promoter: NONE USED","4/24 (17%), 0/20 (0%), 100%, p<0.05"
same,"tumour outcome (control, treated, inhibition, significance)","Carcinogen: 4-NITROQUINOLINE-1-OXIDE, 56-57-5, 100 PPM IN DIET FOR 22 WK BEGINNING 1 WK POST CARCINOGEN TREATMENT (STUDY DURATION: 32 WK), Route [Inhibitor]: ORAL, Species: RAT, Strain/Sex: F344/MALE, Target Tissue: Type of Lesion: TONGUE: SQUAMOUS CELL CARCINOMA, Dose [Carcinogen]: 20 PPM IN DRINKING WATER FOR 8 WK, Promoter: NONE USED","13/24 (54%), 0/20 (0%), 100%, p<0.05"
same,"tumour outcome (control, treated, inhibition, significance)","Carcinogen: N-BUTYL-N-(4-HYDROXYBUTYL)NITROSAMINE, 3817-11-6, 50 PPM IN DRINKING WATER FOR 2O WK BEGINNING 1 WK POST CARCINOGEN TREATMENT (STUDY DURATION: 41 WK), Route [Inhibitor]: ORAL, Species: MOUSE, Strain/Sex: ICR/MALE, Target Tissue: Type of Lesion: URINARY BLADDER: CARCINOMA, Dose [Carcinogen]: 250 PPM IN DRINKING WATER FOR 20 WK, Promoter: NONE USED","15/36 (42%), 6/33 (18%), 57%, p<0.05"
same,"tumour outcome (control, treated, inhibition, significance)","Carcinogen: N-BUTYL-N-(4-HYDROXYBUTYL)NITROSAMINE, 3817-11-6, 50 PPM IN DRINKING WATER FOR 20 WK BEGINNING 1 WK POST CARCINOGEN TREATMENT (STUDY DURATION: 41 WK), Route [Inhibitor]: ORAL, Species: MOUSE, Strain/Sex: ICR/MALE, Target Tissue: Type of Lesion: URINARY BLADDER: PAPILLOMA, Dose [Carcinogen]: 250 PPM IN DRINKING WATER FOR 20 WK, Promoter: NONE USED","2/36 (6%), 4/33 (12%), -100%, not significant"
Cc1cc(NC(=O)[C@H](CCCN=C(N)N)NC(=O)[C@H](CO)NC(=O)[C@H](Cc2ccccc2)NC(=O)OC(C)(C)C)cc2oc(=O)ccc12,"tumour outcome (control, treated, inhibition, significance)","Carcinogen: 1,2-DIMETHYLHYDRAZINE, 540-73-8, 2429 UG/G IN DIET FOR 32 WK BEGINNING AT 24 D OF AGE (STUDY DURATION: 32 WK), Route [Inhibitor]: ORAL, Species: RAT, Strain/Sex: SPRAGUE-DAWLEY/MALE, Target Tissue: Type of Lesion: COLON: ADENOCARCINOMA, Dose [Carcinogen]: 20 MG/KG 1/WK FOR 15 WK BEGINNING ON D 37, Promoter: NONE USED","19/22 (86%), 11/16 (69%), 20%, not calculated"
same,"tumour outcome (control, treated, inhibition, significance)","Carcinogen: 1,2-DIMETHYLHYDRAZINE, 540-73-8, 2429 UG/G IN DIET FOR 32 WK BEGINNING AT 24 D OF AGE (STUDY DURATION: 32 WK), Route [Inhibitor]: ORAL, Species: RAT, Strain/Sex: SPRAGUE-DAWLEY/MALE, Target Tissue: Type of Lesion: SMALL INTESTINE: ADENOCARCINOMA, Dose [Carcinogen]: 20 MG/KG 1/WK FOR 15 WK BEGINNING ON D 37, Promoter: NONE USED","18/22 (82%), 10/16 (63%), 23%, not calculated"
C[Si](C)(C)c1cc(C(=O)Nc2ccc(C(=O)O)cc2)cc([Si](C)(C)C)c1,outcome,"0.8 mg/kg by gavage 5 d/wk for 1 wk, 0.8 mg/kg by gavage 5 d/wk for 1 wk",colon: tumors
same,outcome,"0.8 mg/kg by gavage 5 d/wk for 4 wks, 0.8 mg/kg by gavage 5 d/wk for 4 wks",colon: tumors
same,outcome,"8 mg/kg by gavage 5 d/wk for 1 wk, 8 mg/kg by gavage 5 d/wk for 1 wk",colon: tumors
same,outcome,"8 mg/kg by gavage 5 d/wk for 4 wks, 8 mg/kg by gavage 5 d/wk for 4 wks",colon: tumors
CCC(C)(C)C(=O)O[C@H]1C[C@@H](C)C=C2C=C[C@H](C)[C@H](CC[C@@H]3C[C@@H](O)CC(=O)O3)[C@H]21,"tumour outcome (control, treated, inhibition, significance)","Carcinogen: 1,2-DIMETHYLHYDRAZINE, 540-73-8, 0.02% IN DIET FOR 25 WK (STUDY DURATION: 25 WK), Route [Inhibitor]: ORAL, Species: MOUSE, Strain/Sex: ICR/FEMALE, Target Tissue: Type of Lesion: COLON: TUMOR, Dose [Carcinogen]: 10 MG/KG BW 1/WK FOR 15 WK, Promoter: NONE USED","16/30 (53%), 12/30 (40%), 25%, not significant"
same,"tumour outcome (control, treated, inhibition, significance)","Carcinogen: 1,2-DIMETHYLHYDRAZINE, 540-73-8, 0.1% IN DIET FOR 25 WK (STUDY DURATION: 25 WK), Route [Inhibitor]: ORAL, Species: MOUSE, Strain/Sex: ICR/FEMALE, Target Tissue: Type of Lesion: COLON: TUMOR, Dose [Carcinogen]: 10 MG/KG BW 1/WK FOR 15 WK, Promoter: NONE USED","16/30 (53%), 11/30 (37%), 30%, not significant"
CCCCCN(CCCCC)C(=O)C(CCC(=O)O)NC(=O)c1ccc(Cl)c(Cl)c1 (configuration not stated),"tumour outcome (control, treated, inhibition, significance)","Carcinogen: 7,12-DIMETHYLBENZ[A]ANTHRACENE, 57-97-6, 12 MG/KG 2/D FOR 15 D POST CARCINOGEN TREATMENT (STUDY DURATION: 6 MO), Route [Inhibitor]: SUBCUTANEOUS, Species: RAT, Strain/Sex: SPRAGUE-DAWLEY/MALE, Target Tissue: Type of Lesion: PANCREAS: CARCINOMA, Dose [Carcinogen]: 2-3 MG ONCE, Promoter: CAERULEIN, 17650-98-5","11/15 (73%), 7/15 (47%), 36%, p<0.02"
same,"tumour outcome (control, treated, inhibition, significance)","Carcinogen: AZASERINE, 115-02-6, 12 MG/KG BW 1/D 3 D/WK FOR 8 MO BEGINNING 4 MO POST FIRST CARCINOGEN DOSE (STUDY DURATION: 8 MO), Route [Inhibitor]: SUBCUTANEOUS, Species: RAT, Strain/Sex: WISTAR/MALE, Target Tissue: Type of Lesion: PANCREAS: TUMOR, Dose [Carcinogen]: 30 MG/KG ON DAYS 19, 26, AND 54 OF AGE, Promoter: CHOLECYSTOKININ, 9011-97-6","19/34 (56%), 15/35 (43%), 23%, not significant"
same,"tumour outcome (control, treated, inhibition, significance)","Carcinogen: AZASERINE, 115-02-6, 12 MG/KG BW 1/D 30 MIN PRIOR TO PROMOTER DOSE 3 D/WK FOR 8 MO BEGINNING 4 MO POST FIRST CARCINOGEN DOSE (STUDY DURATI, Route [Inhibitor]: SUBCUTANEOUS, Species: RAT, Strain/Sex: WISTAR/MALE, Target Tissue: Type of Lesion: PANCREAS: TUMOR, Dose [Carcinogen]: 30 MG/KG ON DAYS 19, 26, AND 54 OF AGE, Promoter: BOMBESIN, 31362-50-2","28/37 (76%), 18/32 (56%), 26%, not significant"
